Assay [1] concerns rat brain transient middle cerebral artery occlusion (tMCAO) IR injury. The experiment in a line: In vivo rat brain ischaemia and reperfusion (tMCAO): neurological score, infarct, histology. The conditions noted are these: for Average Neurological Score / Median Neurological Score: dimethyl malonate 6 mg/kg/min i.v. infusion. On the set-up: Median Neurological Score / Average Neurological Score: scale not given here. The source says: The following murine models of warm ischaemia and/or IR injury were used: global ischaemia of ex vivo perfused mouse heart; in vivo mouse left descending coronary artery (LAD) ligation; in vivo rat brain transient middle cerebral artery occlusion (tMCAO); in vivo mouse kidney ischaemia by monolateral occlusion of the renal hilum; in vivo global ischaemia of the liver following cervical dislocation. The modelling of metabolic pathways in the ischaemic myocardium was done as described previously^11. The cell models of IR injury used were adult isolated primary rat cardiomyocytes and the mouse C2C12 myoblast cell line. Fluorescence within cardiomyocytes was assessed by laser scanning confocal microscopy. DHE fluorescence was used to measure ROS production, TMRM fluorescence in de-quench mode was used for mitochondrial membrane potential and NAD(P)H autofluorescence was used to assess the reduction potential of the NAD(P)H pools^8. To assess metabolic pathways in the ex vivo perfused mouse heart ^13C-labelled glucose, glutamine or aspartate were infused into the isolated heart and the ^13C isotopologues of CAC metabolites were then quantified by LC-MS. The effects of metabolic inhibitors on ischaemic metabolite accumulation and the distribution of ^13C-labels were assessed by i.v. infusion of metabolic inhibitors followed by LC-MS analysis of tissue metabolites. The redox state of the cardiac CoQ pool was assessed by LC. The amelioration of in vivo IR injury by metabolic inhibitors was assessed by i.v. administration of the inhibitors followed by measurement of the infarct size in the heart by triphenyltetrazolium chloride staining and in the brain by determining neurological function and infarct size by histology. Male spontaneously hypertensive stroke prone (SHRSP) rats from the colony maintained at the University of Glasgow (270-310 g) were anaesthetised with 5% isoflurane in oxygen and were intubated and ventilated throughout surgery (˜2.5% isoflurane/oxygen). Body temperature was maintained at 37±0.5° C. Animals underwent pre-stroke burrhole surgery^35 before transient middle cerebral artery occlusion (tMCAO, 45 min). Briefly, a silicone-coated monofilament was advanced (Doccol Corporation, USA) was advanced through the common carotid artery to block the origin of the MCA^36. Animals were maintained under anaesthesia during ischaemia. Immediately following removal of the filament, or after 5 mins of reperfusion, the brain was removed following cervical dislocation and infarct tissue separated from surrounding tissue on the ipsilateral side and snap frozen in liquid nitrogen for metabolomic analysis. Corresponding regions were taken from the contralateral side. […] These rats were then sacrificed by transcardiac perfusion fixation and the infarct area was assessed across 7 coronal levels following hematoxylin and eosin staining^39.

In assay [2] the test system is adult primary rat cardiomyocytes. As to the kind of experiment: Mitochondrial membrane potential (TMRM) in primary cardiomyocytes during in situ IR. The class given is cell-based. The conditions noted are these: 4 mM in ischaemic buffer. As to the method:
FIG. 15: Tracking mitochondrial membrane potential in primary cardiomyocytes during in situ IR. Primary rat cardiomyocytes were subjected to 40 min ischaemia and reoxygenation and mitochondrial membrane potential was tracked throughout the experiment by measurement of tetramethylrhoadmine (TMRM) fluorescence. […] Average traces from at least three replicate experiments are shown. (a) TMRM signal throughout the entire experiment.
Male Sprague-Dawley rats (300-370 g) were terminally anaesthetised via IP injections of 200 mg/kg sodium pentobarbitone and 330 U/kg heparin. Hearts were excised and retrograde perfused on a Langendorff-perfusion system with 13 mL/min oxygenated KH buffer at 37° C. […]
Cells were imaged within 36 hours of plating. […] Simulated ischaemia was achieved by replacing the buffer with a pre-gassed, hypoxic recording buffer simulating ischaemia (as above but lacking glucose and containing 10 mM sodium lactate, 14.8 mM KCl; pH 6.4) and by covering the heated stage with a transparent, gas-impermeant lid, forming a small chamber into which argon was forced to maintain hypoxia. pO2 was routinely measured as <2.0 mm Hg during simulated ischaemia. […]
Mitochondrial membrane potential was measured using tetramethylrhodamine, methyl ester (TMRM, Life Technologies) in dequench mode. […] TMRM fluorescence was excited at 543 nm and emission was collected using a LP 560 filter.

Consider `COC(=O)CC(=O)OC` [dimethyl malonate], for which the “Average Neurological Score” value amounted to 31.67 in assay [1] (Baseline, tMCAO rats); 22.67 in assay [1] (Day 1 after tMCAO); 24.00 in assay [1] (Day 2 after tMCAO); 24.33 in assay [1] (Day 3 after tMCAO). The “Median Neurological Score” value worked out at 32.00 in assay [1] (Baseline, tMCAO rats); 22.00 in assay [1] (Day 1 after tMCAO); 24.00 in assay [1] (Day 2 after tMCAO); 25.00 in assay [1] (Day 3 after tMCAO). Besides, the “neurological function associated with stroke” value in assay [1] (i.v. infusion during rat tMCAO) is “preventing the decline in neurological function”. The “protection against brain IR injury” value in assay [1] (i.v. infusion during rat tMCAO) is recorded as “protective”. Besides, the “volume of infarcted brain tissue caused by IR injury” value in assay [1] (i.v. infusion during rat tMCAO) is “decreasing the volume of infarcted brain tissue”. Besides, the “pyknotic nuclear morphology and vacuolation of the neuropil (histology)” value in assay [1] (i.v. infusion during rat tMCAO, hematoxylin and eosin) is “reducing the pyknotic nuclear morphology and vacuolation of the neuropil”. The “rate of mitochondrial polarisation upon reperfusion” value in assay [2] is recorded as “diminished the rate of mitochondrial polarisation upon reperfusion”.

For the origin of these results see patent US10603298B2, “Succinate dehydrogenase inhibitors (SDHi's)” (Medical Research Council, priority 2014, dated 2020).
